Results on one molecule are retold here after US10457659B2, “Compositions and methods for increasing proliferation of adult salivary stem cells” (The Board of Trustees of the Leland Stanford Junior …, priority 2011, dated 2019).

Entries after “also recorded” stand apart in the source; their conditions may differ.

For one experiment, the target named is T1, ALDH1 (Homo sapiens, UniProt P00352).
T1 sequence (P00352 1-501): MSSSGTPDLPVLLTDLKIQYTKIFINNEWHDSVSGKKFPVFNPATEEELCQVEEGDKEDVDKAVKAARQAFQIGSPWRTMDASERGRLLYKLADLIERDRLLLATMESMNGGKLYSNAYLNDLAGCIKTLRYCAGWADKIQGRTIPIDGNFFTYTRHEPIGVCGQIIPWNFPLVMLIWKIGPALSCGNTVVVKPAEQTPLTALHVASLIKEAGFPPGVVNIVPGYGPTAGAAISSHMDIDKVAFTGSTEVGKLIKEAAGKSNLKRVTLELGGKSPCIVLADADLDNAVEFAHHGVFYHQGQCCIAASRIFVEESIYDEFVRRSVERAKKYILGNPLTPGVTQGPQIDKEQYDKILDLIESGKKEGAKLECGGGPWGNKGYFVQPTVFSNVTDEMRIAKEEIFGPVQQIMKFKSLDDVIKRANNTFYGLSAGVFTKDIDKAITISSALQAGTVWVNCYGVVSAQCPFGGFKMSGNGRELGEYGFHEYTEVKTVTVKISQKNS
The experiment is described as follows: Catalytic activity of ALDH1 isozyme (isozyme selectivity, FIG. 3A). It counts as biochemical. As for the experimental part: (§1) As an example of an assay for dehydrogenase activity, ALDH aldehyde dehydrogenase activity is assayed at 25° C. in 50 mM sodium pyrophosphate HCl buffer, pH 9.0, 100 mM sodium phosphate buffer, pH 7.4, or 50 mM sodium phosphate buffer, pH 7.4, where the buffer includes NAD^+ (e.g., 0.8 mM NAD^+, or higher, e.g., 1 mM, 2 mM, or 5 mM NAD^+) and an aldehyde substrate such as 14 μM propionaldehyde. Reduction of NAD^+ is monitored at 340 nm using a spectrophotometer, or by fluorescence increase using a fluoromicrophotometer Enzymatic activity can be assayed using a standard spectrophotometric method, e.g., by measuring a reductive reaction of the oxidized form of nicotinamide adenine dinucleotide (NAD^+) to its reduced form, NADH, at 340 nm, as described in US 2005/0171043; and WO 2005/057213, and as depicted schematically in FIG. 4. In an exemplary assay, the reaction is carried out at 25° C. in […] pyrophosphate (NaPPi) buffer, pH 9.0, 2.4 mM NAD^+ and 10 mM acetaldehyde as the substrate. Enzymatic activity is measured by a reductive reaction of NAD^+ to NADH at 340 nm, as described in US 2005/0171043; and WO 2005/057213. Alternatively, the production of NADH can be coupled with another enzymatic reaction that consumes NADH and that provides for a detectable signal. […]

For a further experiment, the system named is c-kit+/CD90+ SMG cells. Put plainly: FACS count of c-Kit+/CD90+ submandibular gland cells after 7 days of infusion in mice (FIG. 3C). It is filed as in vivo, mouse. As for the experimental part:
All animal procedures were approved by the Institutional Animal Care and Use Committee at Stanford University. Female C57BL/6 mice (n=10, 4-5 weeks old, Jackson Laboratory, Sacramento, Calif.) were used for ALDH3 activator study.
(§2) An ALDH3 activator (Alda89, 100 ug/ml, n=5) and Vehicle control ([…]; 50% DMSO and 50% PEG400, n=5) was injected into ALZET osmotic pumps (DURECT Corporation, Cupertino, Calif.). The osmotic pumps were implanted subcutaneously into C57BL/6 mice. The mice were euthanized after 7 days and salivary gland tissues were collected for analysis of salsiphere formation and BrdU incorporation as described above. In addition, FACs analysis for anti-mouse c-Kit and anti-mouse CD90 (BD Biosciences, San Jose, Calif.) cell population was also performed in pooled SMG samples.

The target in experiment [1] is T2, human ALDH3 recombinant enzyme (Homo sapiens, UniProt P30838).
T2 sequence (P30838 1-453): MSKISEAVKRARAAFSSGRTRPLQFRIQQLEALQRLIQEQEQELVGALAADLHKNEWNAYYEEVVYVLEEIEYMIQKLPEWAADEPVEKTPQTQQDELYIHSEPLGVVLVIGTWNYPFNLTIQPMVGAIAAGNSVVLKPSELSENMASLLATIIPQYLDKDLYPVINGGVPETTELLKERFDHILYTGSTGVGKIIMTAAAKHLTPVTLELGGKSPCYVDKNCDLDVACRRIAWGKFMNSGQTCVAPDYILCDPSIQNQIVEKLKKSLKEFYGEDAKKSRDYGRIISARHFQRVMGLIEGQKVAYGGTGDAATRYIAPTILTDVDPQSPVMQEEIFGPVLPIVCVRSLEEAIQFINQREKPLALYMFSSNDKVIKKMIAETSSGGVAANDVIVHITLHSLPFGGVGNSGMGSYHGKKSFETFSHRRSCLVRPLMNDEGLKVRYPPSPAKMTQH
Put plainly: Catalytic activity of recombinant ALDH3 enzyme (isozyme selectivity, FIG. 3A). It counts as biochemical. Particulars: n=3, p<0.01. Here is the method: as §1

In a further experiment the test system is SMG salispheres. The experiment is described as follows: Salisphere formation and BrdU incorporation of unselected SMG cells from treated mice (FIG. 3D). It counts as in vivo, mouse. As for the experimental part: After 3 days of culture, cells were stained with Brdu staining kit according to the manufacturer's instructions (Invitrogen, Carlsbdad, Calif.). The total number of salispheres and BrdU positive salispheres per 96 well were counted under light microscopy. For each group 20 wells were counted and experiments were repeated 3 times.
as §2
On the technique in general: Incorporation of labelled thymidine or its analogues reports DNA synthesis.

The target of a further experiment is T3, ALDH3 (Mus musculus, UniProt P47739).
T3 construct: enhanced ALDH3 enzyme activity by 29% in esophagus cell homogenate; from tissue; host or cells: esophagus cell homogenate of C57BL/6 mice
T3 sequence (P47739 1-453): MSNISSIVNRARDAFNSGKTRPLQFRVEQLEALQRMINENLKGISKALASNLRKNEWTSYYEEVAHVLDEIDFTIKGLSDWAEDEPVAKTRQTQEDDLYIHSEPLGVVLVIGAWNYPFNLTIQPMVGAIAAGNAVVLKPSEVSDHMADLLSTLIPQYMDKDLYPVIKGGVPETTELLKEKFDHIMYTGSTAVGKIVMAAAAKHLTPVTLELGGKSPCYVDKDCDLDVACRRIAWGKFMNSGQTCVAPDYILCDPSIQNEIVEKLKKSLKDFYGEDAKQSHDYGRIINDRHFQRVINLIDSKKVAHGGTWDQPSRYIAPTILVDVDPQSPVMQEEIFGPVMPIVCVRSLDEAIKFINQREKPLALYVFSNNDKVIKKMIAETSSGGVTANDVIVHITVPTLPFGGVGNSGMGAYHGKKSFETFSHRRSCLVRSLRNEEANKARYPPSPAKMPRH
The experiment is described as follows: ALDH3 enzyme activity in esophagus cell homogenate after osmotic pump infusion into mice (FIG. 3B). It is filed as in vivo. Conditions: 34 mg/kg/day, n=5, p<0.05.

The test system of the next experiment is ALDH5. Put plainly: Catalytic activity of ALDH5 isozyme (isozyme selectivity, FIG. 3A). It is filed as biochemical. Here is the method:
as §1

A further experiment has as its target T4, ALDH2 (Homo sapiens, UniProt P05091).
T4 sequence (P05091 18-517): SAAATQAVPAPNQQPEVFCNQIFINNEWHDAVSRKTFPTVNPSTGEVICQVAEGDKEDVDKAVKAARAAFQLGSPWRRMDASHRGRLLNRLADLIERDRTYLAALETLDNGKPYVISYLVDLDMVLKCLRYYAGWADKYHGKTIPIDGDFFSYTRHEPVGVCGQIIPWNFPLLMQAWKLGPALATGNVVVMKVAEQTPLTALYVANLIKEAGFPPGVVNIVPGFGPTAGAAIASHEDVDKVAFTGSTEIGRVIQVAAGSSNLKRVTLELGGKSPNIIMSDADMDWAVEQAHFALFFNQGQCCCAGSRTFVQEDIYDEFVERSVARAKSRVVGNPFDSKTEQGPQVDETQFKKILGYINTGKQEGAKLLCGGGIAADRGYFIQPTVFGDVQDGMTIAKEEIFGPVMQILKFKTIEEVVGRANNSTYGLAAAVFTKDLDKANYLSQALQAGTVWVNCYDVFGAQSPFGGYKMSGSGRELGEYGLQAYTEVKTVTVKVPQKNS
Put plainly: Catalytic activity of ALDH2 isozyme (isozyme selectivity, FIG. 3A). It counts as biochemical. Here is the method:
as §1

Consider `C=CCc1ccc2c(c1)OCO2` [Alda-89, 5-(2-propenyl)-1,3-benzodioxole], for which the “effect on ALDH1 isozyme catalytic activity” value on ALDH1 is reported as “no effect”. The “change in number of c-kit+/CD90+ SMG cells compared to vehicle control” value in the experiment on c-kit+/CD90+ SMG cells (7 days of treatment) is listed as “more than doubling; also recorded: more than doubled”. Besides, in the experiment on c-kit+/CD90+ SMG cells (7 days of treatment by subcutaneous osmotic pump, vehicle 7.37±0.45%, p<0.05), the “number of c-kit+/CD90+ cells in SMG” value was determined as 17.8±0.95%. In addition, in experiment [1], the “catalytic activity of human ALDH3 recombinant enzyme” value is listed as 304.4±7.1 % of control. Moreover, in the experiment with SMG salispheres (adult mice, summary statement), the “change in BrdU+ salisphere number after treatment of adult mice” value was “more than doubling”. Further, in the experiment with SMG salispheres (unselected SMG cells from mice treated 7 days, 3 days of culture, vehicle 66±1.42, p<0.05), the “number of BrdU+ spheres” value stood at 91±0.83 spheres/5000 cells. Moreover, in the experiment with SMG salispheres (unselected SMG cells from mice treated 7 days, 3 days of culture, vehicle 86±0.58, p<0.05), the “total number of salispheres” value was determined as 121±0.83 spheres/5000 cells. Moreover, the “enhancement of ALDH3 enzyme activity in esophagus cell homogenate vs vehicle control” value at ALDH3 was 29%. For the same molecule, the “effect on ALDH5 isozyme catalytic activity” value with ALDH5 is reported as “no effect”. Also, the “effect on ALDH2 isozyme catalytic activity” value on ALDH2 is “no effect”.
